Data taken from paper PMC3572853 (ACS medicinal chemistry letters, 2012).

How the values were obtained:
caspase 3 activity = caspase 3 activity in MDA-MB-231 cells; conditions: MDA-MB-231 cells, 100, 200 and 400 µM, 96 h
MDA-MB-231 cells = experiment: cell viability and cell number in MDA-MB-231 cells; format: cell-based; conditions: MDA-MB-231 cells, 100, 200 and 400 µM, 96 h after administration
maximum tolerable dose = format: in vivo; conditions: mice, per os
PADs 1–4 = experiment: kinact/KI determination with purified enzyme, all PADs tested; format: biochemical; conditions: for kinact/KI: for all of the PADs tested (PADs 1–4)
PAD1 = target: T1, PAD1 (Homo sapiens, UniProt Q9ULC6); experiment: kinact/KI determination with purified enzyme, PAD1; format: biochemical
T1 sequence (Q9ULC6 1-663): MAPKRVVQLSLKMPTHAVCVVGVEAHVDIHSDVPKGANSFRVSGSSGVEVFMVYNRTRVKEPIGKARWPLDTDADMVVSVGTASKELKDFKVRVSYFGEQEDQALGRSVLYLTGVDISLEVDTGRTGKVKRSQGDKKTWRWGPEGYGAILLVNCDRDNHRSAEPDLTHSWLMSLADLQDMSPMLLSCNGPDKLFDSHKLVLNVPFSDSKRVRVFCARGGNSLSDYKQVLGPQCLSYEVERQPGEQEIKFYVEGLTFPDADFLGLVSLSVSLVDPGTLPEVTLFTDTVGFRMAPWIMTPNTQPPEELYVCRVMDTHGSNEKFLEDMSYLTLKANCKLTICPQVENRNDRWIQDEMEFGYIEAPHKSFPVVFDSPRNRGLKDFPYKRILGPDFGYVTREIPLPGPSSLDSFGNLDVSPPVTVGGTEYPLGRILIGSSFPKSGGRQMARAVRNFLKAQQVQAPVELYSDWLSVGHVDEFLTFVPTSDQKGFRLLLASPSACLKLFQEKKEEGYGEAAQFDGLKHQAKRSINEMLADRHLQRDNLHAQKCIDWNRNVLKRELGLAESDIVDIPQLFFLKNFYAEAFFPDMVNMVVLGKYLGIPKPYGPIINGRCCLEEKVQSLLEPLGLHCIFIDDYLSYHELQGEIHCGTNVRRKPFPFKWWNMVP

Ki-67 = Ki-67 levels in MDA-MB-231 cells
[1] = mice, 100 mg/kg daily by i.p. for up to 56 days; cited from earlier work
[2] = system: collagen induced arthritis (CIA) model; conditions: cited from earlier work
[3] = system: mouse model of ulcerative colitis; conditions: cited from earlier work
[4] = pharmacokinetics in mice, IV and IP injection; format: in vivo; conditions: 10 mg/kg

| Compound | kinact/KI (PADs 1–4) | caspase 3 activity (caspase 3 activity) | cell number (MDA-MB-231 cells) | cell viability (MDA-MB-231 cells) | Ki-67 levels (Ki-67) | other results |
| --- | --- | --- | --- | --- | --- | --- |
| N=C(CF)NCCC[C@@H](NC(=O)c1ccccc1C(=O)O)C(N)=O [D-o-F-amidine] |  | did not result in an increase in caspase 3 activity | only a small decrease in cell number at a concentration of 400 µM | no effect on cell viability |  | body weight change (maximum tolerable dose; varying doses up to 150 mg/kg): maintained healthy weight gains |
| N=C(CF)NCCC[C@@H](NC(=O)c1ccccc1)C(N)=O [D-F-amidine] |  |  |  |  |  | kinact/KI (PAD1): 20.3 M⁻¹ s⁻¹ |
| N=C(CCl)NCC[C@@H](NC(=O)c1ccccc1)C(N)=O [D-Cl2-amidine] | < 2.5 M⁻¹ s⁻¹ |  |  |  |  |  |
| N=C(CCl)NCCC[C@@H](NC(=O)c1ccccc1)C(N)=O [D-Cl-amidine] |  | significant increase in activity at a concentration of 400 µM | significantly decreased cell number at a concentration of 400 µM | significantly decreasing cell viability at concentrations of 200 and 400 µM | no significant effect on Ki-67 levels | body weight change (maximum tolerable dose; varying doses up to 150 mg/kg): maintained healthy weight gains |
| CC(=O)N[C@H]1[C@@H](O[C@@H]2O[C@H](CC(O)[C@H]3O[C@@H](n4ccc(=O)[nH]c4=O)[C@H](O)[C@@H]3O)[C@H](O)[C@H](O)[C@H]2NC(=O)/C=C/CC(C)C)O[C@H](CO)[C@@H](N)[C@@H]1O (stereo partly shown) [tunicamycin] |  |  |  |  | a decrease in Ki-67 levels |  |
| N=C(CCl)NCCC[C@H](NC(=O)c1ccccc1)C(N)=O [L-Cl-amidine, N-α-Benzoyl-N5-(2-Chloro-1-Iminoethyl)-l-Ornithine Amide] |  | significant increase in activity at a concentration of 400 µM | significantly decreased cell number at a concentration of 400 µM | significantly decreasing cell viability at concentrations of 200 and 400 µM | no significant effect on Ki-67 levels | signs of toxicity [1]: no observable signs of toxicity; disease severity [2]: reduces disease severity; disease severity [3]: reduces disease severity; body weight change (maximum tolerable dose; 100 mg/kg (group 5), 4 days (96 h)): significant weight loss; body weight change (maximum tolerable dose; 150 mg/kg (group 6), 4 days (96 h)): significant weight loss; observable toxicity (maximum tolerable dose; group 6 (150 mg/kg)): notably shaking, anxious, hunching and breathing heavily from 1 to 4 h after treatment; time to complete degradation ([4]; IP): ≤ 4 h; time to complete degradation ([4]; IV): ≤ 2 h |
| N=C(CCl)NCCCC(NC(=O)c1ccccc1)C(=O)O [L-Cl-amidine-OH] |  |  |  |  |  | PAD inhibition in words (PADs 1–4; PADs 1–4): poor PAD inhibitor |

The next lines start with results.

| kinact/KI (PADs 1–4) | Compound | caspase 3 activity (caspase 3 activity) | cell number (MDA-MB-231 cells) | cell viability (MDA-MB-231 cells) | Ki-67 levels (Ki-67) | other results |
| --- | --- | --- | --- | --- | --- | --- |
| < 2.5 M⁻¹ s⁻¹ | N=C(CCl)NCCCC[C@@H](NC(=O)c1ccccc1)C(N)=O [D-Cl4-amidine] |  |  |  |  |  |
| < 3.83 M⁻¹ s⁻¹ | N=C(CCl)NCCC[C@@H](NC(=O)c1ccccc1)C(=O)NCC(=O)O [D-Cl-amidine-Gly] |  |  |  |  |  |
| < 3.83 M⁻¹ s⁻¹ | N=C(CCl)NCCC[C@@H](NC(=O)c1ccccc1)C(=O)O [D-Cl-amidine-OH] |  |  |  |  |  |
